# Measurements taken from ChEMBL document CHEMBL1135598, “In silico and NMR identification of inhibitors of the IGF-I and IGF-binding protein-5 interaction” (J Med Chem, 2002).
# How the values were obtained:
# [1] = molecular target: T1, Insulin-like growth factor-binding protein 5 (Homo sapiens, UniProt P24593); test: Dissociation constant binding to Insulin-like growth factor binding protein 5 at the residue L-81
# [2] = molecular target: T1, Insulin-like growth factor-binding protein 5; test: Dissociation constant in PBS binding to Insulin-like growth factor binding protein 5 at the residue R87
# [3] = molecular target: T1, Insulin-like growth factor-binding protein 5; test: Dissociation constant in DMSO binding to Insulin-like growth factor binding protein 5 at the residue S85
# [4] = molecular target: T1, Insulin-like growth factor-binding protein 5; test: Dissociation constant in DMSO binding to Insulin-like growth factor binding protein 5 at the residue R87
# [5] = molecular target: T1, Insulin-like growth factor-binding protein 5; test: Dissociation constant in DMSO binding to Insulin-like growth factor binding protein 5 at the residue K91
# [6] = molecular target: T1, Insulin-like growth factor-binding protein 5; test: Dissociation constant in PBS binding to Insulin-like growth factor binding protein 5 at the residue L73
# [7] = molecular target: T1, Insulin-like growth factor-binding protein 5; test: Dissociation constant in PBS binding to Insulin-like growth factor binding protein 5 at the residue Y50
# [8] = molecular target: T1, Insulin-like growth factor-binding protein 5; test: Dissociation constant in DMSO binding to Insulin-like growth factor binding protein 5 at the residue Y50
# [9] = molecular target: T1, Insulin-like growth factor-binding protein 5; test: Dissociation constant in DMSO binding to Insulin-like growth factor binding protein 5 at the residue L73
# [10] = molecular target: T1, Insulin-like growth factor-binding protein 5; test: Dissociation constant in DMSO binding to Insulin-like growth factor binding protein 5 at the residue Y86
# [11] = molecular target: T1, Insulin-like growth factor-binding protein 5; test: Dissociation constant in PBS binding to Insulin-like growth factor binding protein 5 at the residue L81
# [12] = molecular target: T1, Insulin-like growth factor-binding protein 5; test: Dissociation constant in PBS binding to Insulin-like growth factor binding protein 5 at the residue K91
# [13] = molecular target: T1, Insulin-like growth factor-binding protein 5; test: Dissociation constant in DMSO binding to Insulin-like growth factor binding protein 5 at the residue L81
# [14] = molecular target: T1, Insulin-like growth factor-binding protein 5; test: Dissociation constant in PBS binding to Insulin-like growth factor binding protein 5 at the residue S85
# [15] = molecular target: T1, Insulin-like growth factor-binding protein 5; test: Dissociation constant in PBS binding to Insulin-like growth factor binding protein 5 at the residue Y86
# [16] = molecular target: T1, Insulin-like growth factor-binding protein 5; test: Dissociation constant in BS binding to Insulin-like growth factor binding protein 5 at the residue K91
# [17] = molecular target: T1, Insulin-like growth factor-binding protein 5; test: Dissociation constant in binding to Insulin-like growth factor binding protein 5 at the residue L73
# [18] = molecular target: T1, Insulin-like growth factor-binding protein 5; test: Dissociation constant in binding to Insulin-like growth factor binding protein 5 at the residue L81
# [19] = molecular target: T1, Insulin-like growth factor-binding protein 5; test: Dissociation constant in binding to Insulin-like growth factor binding protein 5 at the residue Y86
# [20] = molecular target: T1, Insulin-like growth factor-binding protein 5; test: Dissociation constant in binding to Insulin-like growth factor binding protein 5 at the residue R87
# [21] = molecular target: T1, Insulin-like growth factor-binding protein 5; test: Dissociation constant in binding to Insulin-like growth factor binding protein 5 at the residue Y50
# [22] = molecular target: T1, Insulin-like growth factor-binding protein 5; test: Dissociation constant in binding to Insulin-like growth factor binding protein 5 at the residue S85
# T1 sequence (P24593 whole entry): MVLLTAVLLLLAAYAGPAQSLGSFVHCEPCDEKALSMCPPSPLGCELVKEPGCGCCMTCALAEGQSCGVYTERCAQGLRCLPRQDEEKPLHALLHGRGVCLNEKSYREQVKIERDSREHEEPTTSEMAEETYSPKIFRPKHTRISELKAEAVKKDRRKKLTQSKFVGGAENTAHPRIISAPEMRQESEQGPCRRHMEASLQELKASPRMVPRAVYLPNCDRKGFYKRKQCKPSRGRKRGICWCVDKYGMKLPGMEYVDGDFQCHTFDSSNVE
smiles,measurement,setting,value
CC(C)(C)Oc1ccc(C[C@@H](NC(=O)OCC2c3ccccc3-c3ccccc32)C(=O)O)cc1,Kd,[1],718 µM
O=C(N[C@H](Cc1ccc(OP(=O)(O)O)cc1)C(=O)O)OCC1c2ccccc2-c2ccccc21,Kd,[2],2360 µM
same,Kd,[3],1380 µM
same,Kd,[4],1640 µM
same,Kd,[5],2420 µM
same,Kd,[6],2930 µM
same,Kd,[7],1820 µM
same,Kd,[8],1580 µM
same,Kd,[9],1310 µM
same,Kd,[10],1900 µM
same,Kd,[11],2880 µM
same,Kd,[12],2120 µM
same,Kd,[13],2780 µM
same,Kd,[14],2330 µM
same,Kd,[15],1720 µM
same,Kd,[1],2780 µM
O=C(N[C@H](Cc1ccccc1)C(=O)O)OCC1c2ccccc2-c2ccccc21,Kd,[1],1080 µM
C[S+](C)[O-] [DIMETHYL SULFOXIDE],Kd,[16],719000 µM
same,Kd,[17],541000 µM
same,Kd,[18],610000 µM
same,Kd,[19],783000 µM
same,Kd,[20],921000 µM
same,Kd,[21],648000 µM
same,Kd,[22],650000 µM
